Common to all, as to format: in vivo, rat
One data set has as its system Arc mRNA. In words: m-RNA analysis of Arc in brain regions (real-time PCR). Conditions: 0.3 and 1 μmol/kg SC, 60 min after injection, percent of control, FIG. 5. The protocol:
(§1) Animals were killed 60 min after the injection of the drugs by decapitation.
(§2) The brains were dissected into a left and a right part. The left part was analyzed for gene expression and dissected into 4 different areas:
(§3) Limbic system (containing nucleus accumbens, most parts of the olfactory tubercle, ventral pallidum and amygdala), striatum, frontal cortex, and hippocampus.
(§4) Total RNA was prepared by RNeasy Plus Universal Tissue Mini Kit (Qiagen).
(§5) RNA pellets were dissolved in RNAse-free water and stored at −80° C. The sample concentration was determined spectrophotometrically by a NanoDrop ND-1000.
A two-step reversed transcription was performed by using a SuperScript III kit (Invitrogen). 1 μg of total RNA was reversed transcribed with 5 μl 2×RT Reaction Mix, 1 μl RT Enzyme and the mix volume was adjusted to 10 μl with RNAse-free water. The sample was incubated at 25° C. for 10 min, 50° C. for 30 min and finally 85° C. for 5 min. 1 U of E. coli RNase H was added following incubation at 37° C. for 20 min and 85° C. for 5 minutes. The cDNA solution was diluted 40 times in Tris EDTA buffer solution pH8 (Merck) and stored at −20° C.
Three sequences (arc and two reference genes) were amplified together in a triplex PCR-reaction. For real-time PCR measurements: 5 μl of the cDNA reaction was amplified in a 20 μl reaction mixture containing 10 μl PerfeCTa MultiPlex qPCR SuperMix (Quantabio), 3.5 μl RNAse-free water, 0.15 µM of each primer and 0.1 μM of each probe. Real-time PCR was measured on CFX96 (Bio-Rad) using the following settings for all genes: 3 min pre-incubation at 95° C. followed by 40 cycles of denaturation at 95° C. for 15 s, annealing and elongation at 60° C. for 1 min. Reference genes are HPRT and cyclophilin.
FIG. 5 illustrates the effects on tissue levels of Arc mRNA in four different regions of the brain (limbic regions, striatum, frontal cortex and hippocampus) after subcutaneous administration of two different compounds at two different doses as in comparison to that of corresponding control experiments. The bars in the left half of the figure represent the effects on ARC by the prior art compound according to Preparation 4A ((4aR,10aR)-1-propyl-1,2,3,4,4a,5,8,9,10,10a-decahydrobenzo[g]quinolin-6 (7H)-one) and the bars in the right half of the figure represent the effects on ARC by the compound of the present disclosure according to Example 4B ((4aR,10aR)-1-propyl-1,2,3,4,4a,5,6,7,8,9,10,10a-dodecahydrobenzo[g]quinolin-6-ol). The effects on tissue levels of Arc by both of the two aforementioned compounds were measured at two different doses (0.3 μmol/kg and 1 μmol/kg) and the effect is presented as percent of control means±SEM. Statistical significance was assessed using Student's t-test (2 tailed) vs controls.

The next data set deals with egr-1. In words: m-RNA analysis of egr-1 in brain regions (Taqman PCR). Conditions: SC. The protocol:
as §1, §2, §3, §4, §5
(§6) A two-step reversed transcription was performed by using a SuperScript III kit (Invitrogen). 1 μg of total RNA was reversed transcribed with 5 μl 2×RT Reaction Mix, 1 μl RT Enzyme and the mix volume was adjusted to 10 μl with RNAse-free water. The sample was incubated at 25° C. for 10 min, 50° C. for 30 min and finally 85° C. for 5 min. […]
(§7) EGR-1 (Early growth response qRnoCEP0022872) was analyzed in duplex with the reference gene HPRT (hypoxanthine phosphoribosyltransferase qRnoCEP0050840). Npas4 (neuronal PAS domain protein4 qRnoCEP0029461) was analyzed in singleplex. The reference gene Ppia (cyclophilin A peptidyl-propyl cis-trans isomerase qRnoCIP0050815) was also analyzed in order to quantify gene expression for genes of interest.
Background: Real-time PCR tracks product formation cycle by cycle.

Data set [1] has as its system non-pre-treated Sprague-Dawley rats. Briefly: Spontaneous locomotor activity (distance travelled). Conditions: 0.3 μmol/kg SC; for effect on motor activity (distance travelled): n=5, 0-180 min, vs saline, FIG. 6 and 7. The protocol: Behavioral activity was measured using eight Digiscan activity monitors (RXYZM (16) TAO, Omnitech Electronics, Columbus, OH, USA), connected to an Omnitech Digiscan analyzer and an Apple Macintosh computer equipped with a digital interface board (NB DIO-24, National Instruments, USA). Each activity monitor consisted of a quadratic metal frame (W×L=40 cm×40 cm) equipped with photo beam sensors. During measurements of behavioral activity, a rat was put in a transparent acrylic cage (W×L×H, 40×40×30 cm) which in turn was placed in the activity monitor. Each activity monitor was equipped with three rows of infrared photo beam sensors, each row consisting of 16 sensors. Two rows were placed along the front and the side of the floor of the cage, at a 90° angle, and the third row was placed 10 cm above the floor to measure vertical activity. Photo beam sensors were spaced 2.5 cm apart. Each activity monitor was fitted in an identical sound and light attenuating box containing a weak house light and a fan.
The computer software was written using object-oriented programming (LabVIEW™ National instruments, Austin, TX, USA).
Behavioral data from each activity monitor, representing the position (horizontal center of gravity and vertical activity) of the animal at each time, were recorded at a sampling frequency of 25 Hz and collected using a custom written LABView™ application. The data from each recording session were stored and analyzed with respect to distance traveled. Each behavioral recording session lasted 180 min, starting approximately 5 min after the injection of test compound.
Compounds disclosed herein have been tested for effects on spontaneous locomotor activity in non-pre-treated Sprague-Dawley rats (based on accumulated distance travelled 0-180 min post dosing), and with the single dose of 0.3 μmol/kg (n=5, SC) compared to a control group of animals (n=5) that obtained saline (SC). The unit of the distance travelled is an arbitrary unit.
The animals were placed in the motility meters immediately after administration and locomotor activity was recorded for 180 minutes.
Results are presented as distance travelled for the control group (empty bar) and for the group of animals that obtained the drug (filled bar).
The animals were placed in the motility meters immediately after administration and locomotor activity was recorded for 180 minutes. Results are presented as distance travelled for the control group (empty bars) and for the group of animals that obtained the drug (filled bar).

The subject of the next data set is Npas4. In words: m-RNA analysis of Npas4 in brain regions (Taqman PCR). Conditions: SC. The protocol:
as §1, §2, §3, §4, §5, §6, §7

Data set [2] deals with unilaterally 6-OHDA lesioned rats. In words: Contralateral rotations in unilaterally 6-OHDA lesioned rats. Conditions: for contralateral turns: dopamine-receptor agonist potency / duration of action as compared to that of apomorphine / bioavailability indicated by contralateral turns after IP and PO administration: 0.1 mg/kg, FIG. 4; for contralateral turns: dopamine-receptor agonist potency: IP (n=4) and PO (n=6); for duration of action as compared to that of apomorphine: IP and PO; for bioavailability indicated by contralateral turns after IP and PO administration: IP vs PO. The protocol:
Male Sprague-Dawley rats (150 g; Scanbur, Sweden) were used for this study and housed in separate air-conditioned rooms (12-h dark/light cycle) at 20° C. and a humidity of 53%. Experiments were performed in agreement with the European Communities Council Directive of 24 Nov. 1986 (86/609/EEC) on the ethical use of animals and were approved by the local ethical committee at Karolinska Institute. In most of the experiments, unilaterally 6-OHDA lesioned rats were used to mimic aspects of Parkinsonism. Unilateral 6-OHDA lesioning of nigral dopaminergic axons was performed as previously described (Zhang et al., Neuropharmacology 54 (2008) 1143-1152). Briefly, rats were anesthetized with ketamine (100 mg/kg, i.p.; Parke-Davis, Boxmeer, Netherlands)/xylazine (5 mg/kg, i.p.; Bayer, Kiel, Germany), pretreated with desipramine (25 mg/kg, i.p.; Sigma, Stockholm, Sweden) and pargyline (5 mg/kg, i.p.; Sigma), placed in a stereotaxic instrument and injected with 6-OHDA (2.5 p.I of a 5 mg/ml solution; Sigma) into the medial forebrain bundle of the right hemisphere (AP—2.8 mm, ML—2.0 mm and V—9.0 mm). Two weeks after unilateral 6-OHDA lesioning, rats were administered with apomorphine (1 mg/kg, i.p; Sigma), and their contralateral rotations were measured. […] Only rats which rotated contralaterally more than 100 times were included in further experiments.
The time scale is minutes or hours after administration. […] Negative control animals were injected with saline.

Structures are written as SMILES.

With `CCCN1CCC[C@@H]2CC3=C(CCC[C@H]3O)C[C@H]21` [Example 4B, (4aR,6R,10aR)-1-propyl-1,2,3,4,4a,5,6,7,8,9,10,10a-dodecahydrobenzo[g]quinolin-6-ol], in the data set with Arc mRNA, the “tissue levels of Arc in the frontal cortex” value is on record as “dose-dependently increase” and the “tissue levels of Arc in the limbic regions” value was “dose-dependently increases”. Moreover, the “tissue levels of egr-1 in the limbic regions” value in the data set with egr-1 (60 min after injection) is “increases tissue levels”. For the same compound, the “increase of egr-1 in the limbic regions compared to Preparation 4A” value with egr-1 (vs prior art compound) is given as “to a greater extent”. Besides, in data set [1], the “on-set of action (distance travelled increases after the initial decrease)” value was 35 to 40 min; the “side effect profile, inferred from slower on-set of action” value is given as “no or a mild side effect profile”; the “effect on motor activity (distance travelled)” value was “induce hyperactivity”. For the same compound, the “tissue levels of Npas4 in the limbic regions” value with Npas4 (60 min after injection) is “increases tissue levels”. The “increase of Npas4 in the limbic regions compared to Preparation 4A” value in the data set on Npas4 (vs prior art compound) was “to a greater extent”. Also, in data set [2], the “contralateral turns: dopamine-receptor agonist potency” value was “highly potent dopamine-receptor agonists”; the “duration of action as compared to that of apomorphine” value is listed as “very long duration of action”; the “bioavailability indicated by contralateral turns after IP and PO administration” value was “good bioavailability”.
For the compound `CCCN1CCC[C@@H]2CC3=C(CCCC3=O)C[C@H]21` [Preparation 4A, (4aR,10aR)-1-propyl-1,2,3,4,4a,5,8,9,10,10a-decahydrobenzo[g]quinolin-6 (7H)-one], in the data set with Arc mRNA, the “tissue levels of Arc in the frontal cortex” value is listed as “dose-dependently increase” and the “tissue levels of Arc in the limbic regions” value was “does not have”. For the same compound, in data set [1], the “on-set of action (distance travelled increases after the initial decrease)” value fell in the range of 20 to 25 min, the “time at which a long distance travelled is already reached (steep immediate effect)” value lay within 20 to 45 min and the “effect on motor activity (distance travelled)” value was “induce hyperactivity”. In addition, the “peak plasma concentration of the active species, inferred from locomotor data” value in data set [1] (compared to Example 4B) is on record as “higher peak plasma concentration”.
With `CCCN1CCC[C@@H]2CC3=C(CCC[C@@H]3O)C[C@H]21` [epimer 2, (4aR,6S,10aR)-1-propyl-1,2,3,4,4a,5,6,7,8,9,10,10a-dodecahydrobenzo[g]quinolin-6-ol], in data set [2], the “contralateral turns: dopamine-receptor agonist potency” value is “highly potent dopamine-receptor agonists”; the “duration of action as compared to that of apomorphine” value is listed as “very long duration of action”; the “bioavailability indicated by contralateral turns after IP and PO administration” value was “good bioavailability”.
Regarding `CN1CCc2cccc3c2[C@H]1Cc1ccc(O)c(O)c1-3` [apomorphine, reference compound], the “contralateral turns as a function of time (course of effect)” value in data set [2] (1 mg/kg i.p., FIG. 3) was “declines over time”.

Values taken from patent US20250282733A1, “NOVEL 1,2,3,4,4A,5,6,7,8,9,10,10A-DODECAHYDROBENZO[G]QUINOLIN-6-OL COMPOUNDS AND USES THEREOF” (priority 2022, published 2025).
